Data: patent US20100234390A1, “NOVEL COMPOUND AND THEIR USE” (priority 2007, published 2010)
In brackets after ≈: the same amount, converted by molar mass.

Experiments:
Experiment in all cases: Agar dilution MIC
Settings in all cases: 16-20 hours
E. faecalis ATCC 29212 = assay type: cell-based, Enterococcus faecalis
Description: (§1) Briefly, the compounds of invention were weighed, dissolved in dimethyl sulfoxide, serially two fold diluted in the same solvent and then incorporated into molten Mueller Hinton Agar (MHA) in a petridish just before solidification, with each petridish containing a different concentration of a compound.
(§2) The bacterial inoculum was prepared by picking 3 to 5 well isolated bacterial colonies with the same morphological appearance from an 18-24 hours old culture with an inoculating loop, transferring the growth to a tube containing 3 mL of normal saline and adjusting the turbidity of the saline suspension to 0.5 Mc Farland Turbidity Standard equivalent to a bacterial population of 1.5×10^8 colony forming units (CFU) per mL of suspension. The suspension was diluted 1:10 in saline (i.e. 0.5 mL suspension 4.5 mL saline) to get a bacterial population of 1.5×10^7 CFU/mL as inoculum.
(§3) The inoculated petridishes were incubated at 35° C. in an ambient atmosphere for 16-20 hours.

E. faecalis MRO 04050 = assay type: cell-based, Enterococcus faecalis
Description: as §1, §2, §3

E. faecalis ATCC 51299 = assay type: cell-based, Enterococcus faecalis
Description: as §1, §2, §3

E. faecalis MRO 04035 = assay type: cell-based, Enterococcus faecalis
Description: as §1, §2, §3

E. faecalis MRO 04205 = assay type: cell-based, Enterococcus faecalis
Description: as §1, §2, §3

[1] = tested on: M. catarrhalis ATCC 43617; assay type: cell-based, Moraxella catarrhalis
Description: as §1, §2, §3

[2] = tested on: M. catarrhalis ATCC 43627; assay type: cell-based, Moraxella catarrhalis
Description: as §1, §2, §3

[3] = tested on: M. catarrhalis ATCC 43628; assay type: cell-based, Moraxella catarrhalis
Description: as §1, §2, §3

[4] = tested on: S. epidermidis MRO 002046; assay type: cell-based
Description: as §1, §2, §3

[5] = tested on: S. saprophyticus MRO 02003; assay type: cell-based
Description: as §1, §2, §3

S. epidermidis MRO 02002 = assay type: cell-based
Description: as §1, §2, §3

S. epidermidis MRO 02045 = assay type: cell-based
Description: as §1, §2, §3

[6] = tested on: S. haemolyticus MRO 02064; assay type: cell-based
Description: as §1, §2, §3

S. epidermidis MRO 02095 = assay type: cell-based
Description: as §1, §2, §3

E. faecium MRO 04038 = assay type: cell-based, Enterococcus faecium
Description: as §1, §2, §3

E. faecium MRO 04037 = assay type: cell-based, Enterococcus faecium
Description: as §1, §2, §3

E. faecium MRO 04198 = assay type: cell-based, Enterococcus faecium
Description: as §1, §2, §3

E. faecium ATCC 700221 = assay type: cell-based, Enterococcus faecium
Description: as §1, §2, §3

S. aureus ATCC 43300 = assay type: cell-based, Staphylococcus aureus
Description: as §1, §2, §3

S. aureus MRO 00048 = assay type: cell-based, Staphylococcus aureus
Description: as §1, §2, §3

S. aureus MRO 0001 = assay type: cell-based, Staphylococcus aureus
Description: as §1, §2, §3

S. aureus ATCC 29213 = assay type: cell-based, Staphylococcus aureus
Description: as §1, §2, §3

S. aureus MRO 00013 = assay type: cell-based, Staphylococcus aureus
Description: as §1, §2, §3

S. aureus MRO 0003 = assay type: cell-based, Staphylococcus aureus
Description: as §1, §2, §3

S. aureus MRO 00059 = assay type: cell-based, Staphylococcus aureus
Description: as §1, §2, §3

S. aureus MRO 00055 = assay type: cell-based, Staphylococcus aureus
Description: as §1, §2, §3

S. aureus MRO 002053 = assay type: cell-based, Staphylococcus aureus
Description: as §1, §2, §3

S. aureus MRO 00030 = assay type: cell-based, Staphylococcus aureus
Description: as §1, §2, §3

COC(=S)NC[C@H]1CN(c2ccc(N3CCN(C(=O)Cn4cnnn4)CC3)c(F)c2)C(=O)O1 [Example 72, (S)—O-Methyl (3-(4-(4-(2-(1H-tetrazol-1-yl)acetyl)piperazin-1-yl)-3-fluorophenyl)-2-oxooxazolidin-5-yl)methylcarbamothioate]
MIC (E. faecalis ATCC 29212; Enterococcus faecalis, ATCC29212, 35° C., read-out: Antimicrobial Screening (MIC)): 0.5 µg/mL (≈ 1.04 µM) | MIC (E. faecalis MRO 04050; Enterococcus faecalis, MRO04050, 35° C., read-out: Antimicrobial Screening (MIC)): 0.5 µg/mL (≈ 1.04 µM) | MIC (E. faecalis ATCC 51299; Enterococcus faecalis, ATCC51299, 35° C., read-out: Antimicrobial Screening (MIC)): 0.5 µg/mL (≈ 1.04 µM) | MIC (E. faecalis MRO 04035; Enterococcus faecalis, MRO04035, 35° C., read-out: Antimicrobial Screening (MIC)): 0.5 µg/mL (≈ 1.04 µM) | MIC (E. faecalis MRO 04205; Enterococcus faecalis, MRO04205, 35° C., read-out: Antimicrobial Screening (MIC)): 0.5 µg/mL (≈ 1.04 µM) | MIC ([1]; Moraxella catarrhalis, ATCC43617, 35° C., read-out: Antimicrobial Screening (MIC)): 2 µg/mL (≈ 4.18 µM) | MIC ([2]; Moraxella catarrhalis, ATCC43627, 35° C., read-out: Antimicrobial Screening (MIC)): 2 µg/mL (≈ 4.18 µM) | MIC ([3]; Moraxella catarrhalis, ATCC43628, 35° C., read-out: Antimicrobial Screening (MIC)): 2 µg/mL (≈ 4.18 µM) | MIC ([4]; Staphylococcus epidermidis, MRO002046, 35° C., read-out: Antimicrobial Screening (MIC)): 0.5 µg/mL (≈ 1.04 µM) | MIC ([5]; Staphylococcus saprophyticus, MRO02003, 35° C., read-out: Antimicrobial Screening (MIC)): 1 µg/mL (≈ 2.09 µM) | MIC (S. epidermidis MRO 02002; Staphylococcus epidermidis, MRO02002, 35° C., read-out: Antimicrobial Screening (MIC)): 0.5 µg/mL (≈ 1.04 µM) | MIC (S. epidermidis MRO 02045; Staphylococcus epidermidis, MRO02045, 35° C., read-out: Antimicrobial Screening (MIC)): 0.5 µg/mL (≈ 1.04 µM) | MIC ([6]; Staphylococcus haemolyticus, MRO02064, 35° C., read-out: Antimicrobial Screening (MIC)): 0.5 µg/mL (≈ 1.04 µM) | MIC (S. epidermidis MRO 02095; Staphylococcus epidermidis, MRO02095, 35° C., read-out: Antimicrobial Screening (MIC)): 0.5 µg/mL (≈ 1.04 µM) | MIC (E. faecium MRO 04038; Enterococcus faecium, MRO04038, 35° C., read-out: Antimicrobial Screening (MIC)): 0.5 µg/mL (≈ 1.04 µM) | MIC (E. faecium MRO 04037; Enterococcus faecium, MRO04037, 35° C., read-out: Antimicrobial Screening (MIC)): 0.5 µg/mL (≈ 1.04 µM) | MIC (E. faecium MRO 04198; Enterococcus faecium, MRO04198, 35° C., read-out: Antimicrobial Screening (MIC)): 0.5 µg/mL (≈ 1.04 µM) | MIC (E. faecium ATCC 700221; Enterococcus faecium, ATCC700221, 35° C., read-out: Antimicrobial Screening (MIC)): 0.5 µg/mL (≈ 1.04 µM) | MIC (S. aureus ATCC 43300; Staphylococcus aureus, ATCC43300, 35° C., read-out: Antimicrobial Screening (MIC)): 1 µg/mL (≈ 2.09 µM) | MIC (S. aureus MRO 00048; Staphylococcus aureus, MRO00048, 35° C., read-out: Antimicrobial Screening (MIC)): 0.5 µg/mL (≈ 1.04 µM) | MIC (S. aureus MRO 0001; Staphylococcus aureus, MRO0001, 35° C., read-out: Antimicrobial Screening (MIC)): 0.5 µg/mL (≈ 1.04 µM) | MIC (S. aureus ATCC 29213; Staphylococcus aureus, ATCC29213, 35° C., read-out: Antimicrobial Screening (MIC)): 1 µg/mL (≈ 2.09 µM) | MIC (S. aureus MRO 00013; Staphylococcus aureus, MRO00013, 35° C., read-out: Antimicrobial Screening (MIC)): 1 µg/mL (≈ 2.09 µM) | MIC (S. aureus MRO 0003; Staphylococcus aureus, MRO0003, 35° C., read-out: Antimicrobial Screening (MIC)): 1 µg/mL (≈ 2.09 µM) | MIC (S. aureus MRO 00059; Staphylococcus aureus, MRO00059, 35° C., read-out: Antimicrobial Screening (MIC)): 0.5 µg/mL (≈ 1.04 µM) | MIC (S. aureus MRO 00055; Staphylococcus aureus, MRO00055, 35° C., read-out: Antimicrobial Screening (MIC)): 1 µg/mL (≈ 2.09 µM) | MIC (S. aureus MRO 002053; Staphylococcus aureus, MRO002053, 35° C., read-out: Antimicrobial Screening (MIC)): 0.5 µg/mL (≈ 1.04 µM) | MIC (S. aureus MRO 00030; Staphylococcus aureus, MRO00030, 35° C., read-out: Antimicrobial Screening (MIC)): 0.5 µg/mL (≈ 1.04 µM)

COC(=S)NC[C@H]1CN(c2ccc(N3CCN(C(=S)n4ccnc4)CC3)c(F)c2)C(=O)O1 [Example 76, (S)—O-Methyl(3-(4-(4-(1H-imidazole-1-carbonothioyl)piperazin-1-yl)-3-fluorophenyl)-2-oxooxazolidin-5-yl)methylcarbamothioate]
Antimicrobial Screening (MIC) (E. faecalis ATCC 29212; 35° C.): 0.25 µg/mL | Antimicrobial Screening (MIC) (E. faecalis MRO 04050; 35° C.): 0.25 µg/mL | Antimicrobial Screening (MIC) (E. faecalis ATCC 51299; 35° C.): 0.25 µg/mL | Antimicrobial Screening (MIC) (E. faecalis MRO 04035; 35° C.): 0.25 µg/mL | Antimicrobial Screening (MIC) (E. faecalis MRO 04205; 35° C.): 0.25 µg/mL | Antimicrobial Screening (MIC) ([1]; 35° C.): 1 µg/mL | Antimicrobial Screening (MIC) ([2]; 35° C.): 1 µg/mL | Antimicrobial Screening (MIC) ([3]; 35° C.): 1 µg/mL | Antimicrobial Screening (MIC) ([4]; 35° C.): 0.25 µg/mL | Antimicrobial Screening (MIC) ([5]; 35° C.): 0.5 µg/mL | Antimicrobial Screening (MIC) (S. epidermidis MRO 02002; 35° C.): 0.25 µg/mL | Antimicrobial Screening (MIC) (S. epidermidis MRO 02045; 35° C.): 0.25 µg/mL | Antimicrobial Screening (MIC) ([6]; 35° C.): 0.25 µg/mL | Antimicrobial Screening (MIC) (S. epidermidis MRO 02095; 35° C.): 0.25 µg/mL | Antimicrobial Screening (MIC) (E. faecium MRO 04038; 35° C.): 0.25 µg/mL | Antimicrobial Screening (MIC) (E. faecium MRO 04037; 35° C.): 0.25 µg/mL | Antimicrobial Screening (MIC) (E. faecium MRO 04198; 35° C.): 0.25 µg/mL | Antimicrobial Screening (MIC) (E. faecium ATCC 700221; 35° C.): 0.25 µg/mL | Antimicrobial Screening (MIC) (S. aureus ATCC 43300; 35° C.): 0.25 µg/mL | Antimicrobial Screening (MIC) (S. aureus MRO 00048; 35° C.): 0.25 µg/mL | Antimicrobial Screening (MIC) (S. aureus MRO 0001; 35° C.): 0.5 µg/mL | Antimicrobial Screening (MIC) (S. aureus ATCC 29213; 35° C.): 0.5 µg/mL | Antimicrobial Screening (MIC) (S. aureus MRO 00013; 35° C.): 0.5 µg/mL | Antimicrobial Screening (MIC) (S. aureus MRO 0003; 35° C.): 0.5 µg/mL | Antimicrobial Screening (MIC) (S. aureus MRO 00059; 35° C.): 0.25 µg/mL | Antimicrobial Screening (MIC) (S. aureus MRO 00055; 35° C.): 0.5 µg/mL | Antimicrobial Screening (MIC) (S. aureus MRO 002053; 35° C.): 0.25 µg/mL | Antimicrobial Screening (MIC) (S. aureus MRO 00030; 35° C.): 0.25 µg/mL
